Values quoted from earlier work, collected in US20230310343A1 (priority 2020, published 2023).
Read-outs that look alike come from different tables or passages of the source.

Columns and labels:
[1] = system: herpes simplex virus 1 (HSV-1); conditions: for reduction of viral multiplication: HSV-1-infected cells; for selectivity index: HSV-1
[2] = system: infectious bronchitis virus (IBV)
[3] = target: N-terminus of the N protein (Avian infectious bronchitis virus, UniProt P69596); conditions: IBV N protein
hemagglutinin = hemagglutinin (Influenza A virus, UniProt P03452)
[4] = after penetration of the virus into the cell
[5] = before the virus has entered the cell

Sequence of N-terminus of the N protein (P69596 31-156 limits assumed): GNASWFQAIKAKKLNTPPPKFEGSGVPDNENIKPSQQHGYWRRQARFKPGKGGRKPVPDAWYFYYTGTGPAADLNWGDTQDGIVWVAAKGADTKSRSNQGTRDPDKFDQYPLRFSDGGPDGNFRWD
Sequence of hemagglutinin (P03452 18-342 limits assumed): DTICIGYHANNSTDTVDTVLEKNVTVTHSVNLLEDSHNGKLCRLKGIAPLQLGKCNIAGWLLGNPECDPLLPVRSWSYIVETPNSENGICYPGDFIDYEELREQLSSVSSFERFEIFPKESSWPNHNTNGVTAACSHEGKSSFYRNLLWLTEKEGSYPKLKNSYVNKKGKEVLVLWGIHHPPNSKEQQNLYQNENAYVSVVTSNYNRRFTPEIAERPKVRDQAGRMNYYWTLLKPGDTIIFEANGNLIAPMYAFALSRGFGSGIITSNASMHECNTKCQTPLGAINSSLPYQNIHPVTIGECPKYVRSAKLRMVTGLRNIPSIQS
Sequence of hemagglutinin (P03452 344-565 limits assumed): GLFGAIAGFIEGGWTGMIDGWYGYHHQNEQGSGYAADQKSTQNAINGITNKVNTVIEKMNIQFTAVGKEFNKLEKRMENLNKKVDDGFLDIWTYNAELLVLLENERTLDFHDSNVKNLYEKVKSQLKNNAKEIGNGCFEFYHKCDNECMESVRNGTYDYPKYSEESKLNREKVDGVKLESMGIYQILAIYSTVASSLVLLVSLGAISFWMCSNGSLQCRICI

Compound: Cc1ccc(C(C)C)cc1 [cymene]
- reduction of viral multiplication [1]: significantly reduce viral multiplication

Compound: C=C1CCC2CC1C2(C)C (stereo not drawn) [beta-pinene]
- reducing/inhibiting IBV replication [2]: inhibit viral replication

Compound: Cc1ccc(C(C)C)c(O)c1 [thymol]
- selectivity index [1]: low
- reduction of viral multiplication [1]: significantly reduce viral multiplication

Compound: pinene
- binding to the N-terminus of the N protein [3]: binds to the N-terminus of the N protein
- inhibition of IBV [2, 4]: fully effective
- inhibition of IBV [2, 5]: moderate effectiveness
- reduction of viral multiplication [1]: significantly reduce viral multiplication
- inhibition of hemagglutinin activity (hemagglutinin): able to inhibit

Compound: terpinene
- reduction of viral multiplication [1]: significantly reduce viral multiplication

Compound: CC1=CCC(O)(C(C)C)CC1 (stereo not drawn) [terpinen-4-ol]
- reduction of viral multiplication [1]: significantly reduce viral multiplication

Compound: CC1=CCC2CC1C2(C)C (stereo not drawn) [alpha-pinene]
- reducing/inhibiting IBV replication [2]: inhibit viral replication

Compound: C=CCc1ccc(O)c(OC)c1 [eugenol]
- effectiveness against influenza (H1N1) (influenza (H1N1) virus; liquid phase): effective
- plaque reduction (influenza (H1N1) virus; liquid phase): one hundred
- effectiveness against influenza (H1N1) (influenza (H1N1) virus; vapor phase): effective

Compound: CC(C)=CCC/C(C)=C/C=O [citrol]
- reduction of viral multiplication [1]: significantly reduce viral multiplication

Compound: CC12CCC(CC1)C(C)(C)O2 [cineole, 1,8-cineole]
- binding to the N-terminus of the N protein [3]: binds securely
- reducing/inhibiting IBV replication [2]: highly effective
- inhibition of IBV [2, 4]: fully effective
- inhibition of IBV [2, 5]: moderate effectiveness
- selectivity index [1]: low
- reduction of viral multiplication [1]: significantly reduce viral multiplication

Compound: CC(C)=CCCC(C)CCO (stereo not drawn) [citronellol]
- effectiveness against influenza (H1N1) (influenza (H1N1) virus; liquid phase): only partially effective
- effectiveness against influenza (H1N1) (influenza (H1N1) virus; vapor phase): effective
